Test results published in publication PMC9917560, “Design, Synthesis and Antimicrobial Evaluation of New N-(1-Hydroxy-1,3-dihydrobenzo[c][1,2]oxaborol-6-yl)(hetero)aryl-2-carboxamides as Potential Inhibitors of Mycobacterial Leucyl-tRNA Synthetase” (International Journal of Molecular Sciences, 2023).
In brackets after ≈: the same amount, converted by molar mass. Read-outs that look alike come from different tables or passages of the source. Marks after values point to notes of the source that are not given here.

Assays:
Mtb LeuRS = system: Mtb LeuRS; parameters: method as in PMID 27503647, PMID 28953378; details: ref [13],[14]; read-out: IC50 against LeuRS; cited from earlier work
Mtb H37Rv = system: Mtb H37Rv; parameters: method as in PMID 27503647; details: compounds synthesized and evaluated by Palencia et al. ref [13]; cited from earlier work
HepG2 cell line = assay: Cytotoxicity screening, CellTiter 96 assay; details: Homo sapiens, HepG2, 24 h, read-out: IC50 HepG2
[1] = system: Lichtheimia corymbifera CCM 8077; assay: Antifungal microdilution broth (EUCAST); format: cell-based; details: Lichtheimia corymbifera, CCM8077, read-out: MIC Lichtheimia corymbifera
[2] = system: Escherichia coli CCM 3954 (ATCC 25922); assay: Antibacterial microdilution broth (EUCAST); format: cell-based; details: Escherichia coli, read-out: MIC Escherichia coli
[3] = system: Klebsiella pneumoniae CCM 4415 (ATCC 10031); assay: Antibacterial microdilution broth (EUCAST); format: cell-based; details: Klebsiella pneumoniae, read-out: MIC Klebsiella pneumoniae
[4] = system: Acinetobacter baumannii DSM 30007 (ATCC 19606); assay: Antibacterial microdilution broth (EUCAST); format: cell-based; details: read-out: MIC Acinetobacter baumannii
[5] = system: Mycobacterium tuberculosis H37Rv CNCTC My 331/88 (ATCC 27294); assay: Microplate Alamar Blue assay vs Mtb H37Rv; format: cell-based; details: Mycobacterium tuberculosis, pH 6.6, MABA, Middlebrook 7H9 pH 6.6, recalculated from µg/mL; read-out: MIC Mtb H37Rv
[6] = system: Enterococcus faecalis CCM 4224 (ATCC 29212); assay: Antibacterial microdilution broth (EUCAST); format: cell-based; details: read-out: MIC Enterococcus faecalis
[7] = system: Staphylococcus aureus subsp. aureus CCM 4223 (ATCC 29213); assay: Antibacterial microdilution broth (EUCAST); format: cell-based; details: read-out: MIC Staphylococcus aureus subsp. aureus
[8] = system: Staphylococcus epidermidis CCM 4418 (ATCC 12228); assay: Antibacterial microdilution broth (EUCAST); format: cell-based; details: read-out: MIC Staphylococcus epidermidis
[9] = system: Candida tropicalis CCM 8264 (ATCC 750); assay: Antifungal microdilution broth (EUCAST); format: cell-based; details: read-out: MIC Candida tropicalis
[10] = system: Mycobacterium kansasii DSM 44,162 (ATCC 12478); assay: Antimycobacterial microdilution (resazurin) vs M. kansasii; format: cell-based; details: Middlebrook 7H9, resazurin, read-out: MIC M. kansasii
[11] = system: methicillin-resistant Staphylococcus aureus subsp. aureus (MRSA) CCM 4750 (ATCC 43300); assay: microbe, parasite or virus in culture; format: cell-based; details: read-out: MIC Methicillin-resistant Staphylococcus aureus subsp. aureus
[12] = system: Mycobacterium tuberculosis H37Ra ITM-M006710 (ATCC 9431); assay: Antimycobacterial microdilution (resazurin) vs Mtb H37Ra; format: cell-based; details: Middlebrook 7H9, resazurin, recalculated from µg/mL, read-out: MIC Mtb H37Ra
[13] = system: Candida parapsilosis CCM 8260 (ATCC 22019); assay: Antifungal microdilution broth (EUCAST); format: cell-based; details: Lodderomyces parapsilosis, read-out: MIC Candida parapsilosis
[14] = system: Candida albicans CCM 8320 (ATCC 24433); assay: Antifungal microdilution broth (EUCAST); format: cell-based; details: Candida albicans, read-out: MIC Candida albicans
[15] = system: Mtb IZAK (MDR clinical isolate); assay: microbe, parasite or virus in culture; format: cell-based; details: Mycobacterium tuberculosis, read-out: MIC Mtb IZAK
[16] = system: Pseudomonas aeruginosa CCM 3955 (ATCC 27853); assay: Antibacterial microdilution broth (EUCAST); format: cell-based; details: read-out: MIC Pseudomonas aeruginosa
[17] = system: Mycolicibacterium smegmatis DSM 43,465 (ATCC 607); assay: Antimycobacterial microdilution (resazurin) vs M. smegmatis; format: cell-based
[18] = system: Candida krusei CCM 8271 (ATCC 6258); assay: Antifungal microdilution broth (EUCAST); format: cell-based; details: Pichia kudriavzevii, read-out: MIC Candida krusei
[19] = system: Mycobacterium avium DSM 44,156 (ATCC 25291); assay: Antimycobacterial microdilution (resazurin) vs M. avium; format: cell-based; details: Mycobacterium avium, Middlebrook 7H9, resazurin; read-out: MIC M. avium
[20] = system: Mtb MATI (MDR clinical isolate); assay: microbe, parasite or virus in culture; format: cell-based; details: Mycobacterium tuberculosis, read-out: MIC Mtb MATI
[21] = system: Mycolicibacterium aurum DSM 43,999 (ATCC 23366); assay: Antimycobacterial microdilution (resazurin) vs M. aurum; format: cell-based; details: Middlebrook 7H9, resazurin, read-out: MIC M. aurum
[22] = system: Aspergillus fumigatus ATCC 204305; assay: Antifungal microdilution broth (EUCAST); format: cell-based; details: Aspergillus fumigatus, ATCC204305, read-out: MIC Aspergillus fumigatus
[23] = system: Trichophyton interdigitale CCM 8377 (ATCC 9533); assay: Antifungal microdilution broth (EUCAST); format: cell-based; details: Trichophyton interdigitale, read-out: MIC Trichophyton interdigitale
[24] = system: Aspergillus flavus CCM 8363; assay: Antifungal microdilution broth (EUCAST); format: cell-based; details: Aspergillus flavus, CCM8363, read-out: MIC Aspergillus flavus
[25] = Middlebrook 7H9, resazurin, read-out: MIC M. smeg.

NC[C@H]1OB(O)c2c(OCCO)ccc(Cl)c21 [GSK656, (S)-3-(Aminomethyl)-4-chloro-7-(2hydroxyethoxy)benzo c 1,2 oxaborol-1(3 H)-ol]
IC50 (Mtb LeuRS): 0.2 µM

3-aminomethylbenzoxaborole [Compound C00022]
MIC Mtb H37Rv (Mtb H37Rv): 11.04 * µM

O=C(Nc1ccc2c(c1)B(O)OC2)c1cncc(Cl)n1 [Compound 4, 6-chloro-N-(1-hydroxy-1,3-dihydrobenzo[c][1,2]oxaborol-6-yl)pyrazine-2-carboxamide]
IC50 (HepG2 cell line): > 1000 µM | MIC ([1]; 24h incubation): > 500 µM | MIC ([1]; 48h incubation): > 500 µM | MIC ([2]; 24h incubation): > 500 µM | MIC ([2]; 48h incubation): > 500 µM | MIC ([3]; 24h incubation): > 500 µM | MIC ([3]; 48h incubation): > 500 µM | MIC ([4]; 24h incubation): > 500 µM | MIC ([4]; 48h incubation): > 500 µM | MIC [5]: 86.4 µM (≈ 25 µg/mL) | MIC ([6]; 24h incubation): > 500 µM | MIC ([6]; 48h incubation): > 500 µM | MIC ([7]; 24h incubation): 125 µM (≈ 36.2 µg/mL) | MIC ([7]; 48h incubation): 125 µM (≈ 36.2 µg/mL) | MIC ([8]; 24h incubation): 500 µM (≈ 145 µg/mL) | MIC ([8]; 48h incubation): 500 µM (≈ 145 µg/mL) | MIC ([9]; 24h incubation): > 500 µM | MIC ([9]; 48h incubation): > 500 µM | MIC [10]: 27 µM (≈ 7.81 µg/mL) | MIC ([11]; 24 h): 250 µM (≈ 72.4 µg/mL) | MIC ([11]; 48 h): 250 µM (≈ 72.4 µg/mL) | MIC [12]: 108 µM (≈ 31.3 µg/mL) | MIC ([13]; 24h incubation): > 500 µM | MIC ([13]; 48h incubation): > 500 µM | MIC ([14]; 24h incubation): > 500 µM | MIC ([14]; 48h incubation): > 500 µM | melting point: 250.9 to 252.4 °C | MIC [15]: 86.4 µM (≈ 25 µg/mL) | MIC ([16]; 24h incubation): > 500 µM | MIC ([16]; 48h incubation): > 500 µM | MIC [17, 25]: 27 µM (≈ 7.81 µg/mL) | MIC ([18]; 24h incubation): > 500 µM | MIC ([18]; 48h incubation): > 500 µM | MIC [19]: 27 µM (≈ 7.81 µg/mL) | MIC [20]: 86.4 µM (≈ 25 µg/mL) | MIC [21]: 13.5 µM (≈ 3.91 µg/mL) | MIC ([22]; 24h incubation): > 500 µM | MIC ([22]; 48h incubation): > 500 µM | MIC ([23]; 72h incubation): > 500 µM | MIC ([23]; 120h incubation): > 500 µM | MIC ([24]; 24h incubation): > 500 µM | MIC ([24]; 48h incubation): > 500 µM

O=C(Nc1ccc2c(c1)B(O)OC2)c1ccccn1 [Compound 10, N-(1-hydroxy-1,3-dihydrobenzo[c][1,2]oxaborol-6-yl)picolinamide]
IC50 (HepG2 cell line): > 1000 µM | MIC ([1]; 24h incubation): > 500 µM | MIC ([1]; 48h incubation): > 500 µM | MIC ([2]; 24h incubation): > 500 µM | MIC ([2]; 48h incubation): > 500 µM | MIC ([3]; 24h incubation): > 500 µM | MIC ([3]; 48h incubation): > 500 µM | MIC ([4]; 24h incubation): > 500 µM | MIC ([4]; 48h incubation): > 500 µM | MIC [5]: < 62 µM | MIC ([6]; 24h incubation): > 500 µM | MIC ([6]; 48h incubation): > 500 µM | MIC ([7]; 24h incubation): 250 µM (≈ 63.5 µg/mL) | MIC ([7]; 48h incubation): 250 µM (≈ 63.5 µg/mL) | MIC ([8]; 24h incubation): 500 µM (≈ 127 µg/mL) | MIC ([8]; 48h incubation): 500 µM (≈ 127 µg/mL) | MIC ([9]; 24h incubation): > 500 µM | MIC ([9]; 48h incubation): > 500 µM | MIC ([11]; 24 h): 250 µM (≈ 63.5 µg/mL) | MIC ([11]; 48 h): 250 µM (≈ 63.5 µg/mL) | MIC [12]: < 62 µM | MIC ([13]; 24h incubation): > 500 µM | MIC ([13]; 48h incubation): > 500 µM | MIC ([14]; 24h incubation): > 500 µM | MIC ([14]; 48h incubation): > 500 µM | melting point: 183.7 to 186.1 °C | MIC [15]: 98.4 µM (≈ 25 µg/mL) | MIC ([16]; 24h incubation): > 500 µM | MIC ([16]; 48h incubation): > 500 µM | MIC [17, 25]: < 62 µM | MIC ([17]; read-out: MIC M. smeg., Middlebrook 7H9, resazurin): 61.5 µM (≈ 15.6 µg/mL) | MIC ([18]; 24h incubation): > 500 µM | MIC ([18]; 48h incubation): > 500 µM | MIC [19]: < 62 µM | MIC [20]: 98.4 µM (≈ 25 µg/mL) | MIC ([22]; 24h incubation): > 500 µM | MIC ([22]; 48h incubation): > 500 µM | MIC ([23]; 72h incubation): > 500 µM | MIC ([23]; 120h incubation): > 500 µM | MIC ([24]; 24h incubation): > 500 µM | MIC ([24]; 48h incubation): > 500 µM
